The source of these data is ChEMBL document CHEMBL3352759, “Reduction in lipophilicity improved the solubility, plasma-protein binding, and permeability of tertiary sulfonamide RORc inverse agonists” (Bioorg Med Chem Lett, 2014).

Data set [1] in a line: Apparent permeability from apical to basolateral side of MDCK cells at 2 uM by LC-MS/MS analysis. Format: ADME, cell-based, Canis lupus familiaris. The following applies: dog.
A short description of data set [2]: Apparent permeability from basolateral to apical side of MDCK cells at 2 uM by LC-MS/MS analysis. Format: ADME, cell-based, Canis lupus familiaris. The following applies: dog.

The Papp A→B is the apparent permeability from the apical to the basolateral side of a cell layer. As usually defined, the Papp B→A is the apparent permeability from the basolateral to the apical side of a cell layer. Take `CC(C)CN(Cc1ccc(-c2ccc(S(C)(=O)=O)cc2)cc1)S(=O)(=O)Cc1ccccc1`: in data set [1], the Papp A→B at 2 µM was determined as 30 nm/s. Further, the Papp B→A at 2 µM in data set [2] was found to be 20 nm/s.
For the compound `CC(=O)N1CCN(c2ccc(CN(C3CCC3)S(=O)(=O)Cc3ccccc3)cc2)CC1`, the apical-to-basolateral permeability (Papp A→B) at 2 µM in data set [1] was determined as 240 nm/s. For the same compound, the Papp B→A at 2 µM in data set [2] was found to be 240 nm/s.
